Reference: ChEMBL document CHEMBL5338802, “To Fold or Not to Fold: Diastereomeric Optimization of an α-Helical Antimicrobial Peptide” (J Med Chem, 2023)

Test system: Erythrocyte
Experiment: Hemolytic activity in human RBC incubated for 4 hrs by visual analysis
Assay type: toxicity, cell-based
Settings: not given

Compound | MHC
CC(C)C[C@H](NC(=O)[C@H](CC(C)C)NC(=O)[C@H](CC(C)C)NC(=O)[C@H](CCCCN)NC(=O)[C@@H](CC(C)C)NC(=O)[C@@H](CC(C)C)NC(=O)[C@@H](CCCCN)NC(=O)[C@H](CC(C)C)NC(=O)[C@H](CC(C)C)NC(=O)[C@H](CCCCN)NC(=O)[C@@H](N)CCCCN)C(N)=O | 31.3 µg/mL
CC(C)C[C@H](NC(=O)[C@@H](CC(C)C)NC(=O)[C@H](CC(C)C)NC(=O)[C@@H](CCCCN)NC(=O)[C@H](CC(C)C)NC(=O)[C@@H](CC(C)C)NC(=O)[C@H](CCCCN)NC(=O)[C@@H](CC(C)C)NC(=O)[C@H](CC(C)C)NC(=O)[C@@H](CCCCN)NC(=O)[C@@H](N)CCCCN)C(N)=O | > 2000 µg/mL
CC(C)C[C@H](NC(=O)[C@@H](CC(C)C)NC(=O)[C@H](CCCCN)NC(=O)[C@@H](CC(C)C)NC(=O)[C@H](CC(C)C)NC(=O)[C@@H](CCCCN)NC(=O)[C@H](CC(C)C)NC(=O)[C@@H](CC(C)C)NC(=O)[C@H](CCCCN)NC(=O)[C@H](N)CCCCN)C(=O)N[C@H](CC(C)C)C(N)=O | > 2000 µg/mL
CC(C)C[C@H](NC(=O)[C@H](CC(C)C)NC(=O)[C@@H](CC(C)C)NC(=O)[C@H](CCCCN)NC(=O)[C@@H](CC(C)C)NC(=O)[C@H](CC(C)C)NC(=O)[C@@H](CCCCN)NC(=O)[C@H](CC(C)C)NC(=O)[C@@H](CC(C)C)NC(=O)[C@H](CCCCN)NC(=O)[C@@H](N)CCCCN)C(N)=O | > 2000 µg/mL
CC(C)CC(NC(=O)C(CC(C)C)NC(=O)C(CC(C)C)NC(=O)C(CCCCN)NC(=O)C(CC(C)C)NC(=O)[C@H](CC(C)C)NC(=O)C(CCCCN)NC(=O)C(CC(C)C)NC(=O)C(CC(C)C)NC(=O)C(CCCCN)NC(=O)C(N)CCCCN)C(N)=O (some centres not stated) | 2000 µg/mL
CC(C)C[C@H](NC(=O)[C@@H](CC(C)C)NC(=O)[C@@H](CC(C)C)NC(=O)[C@H](CCCCN)NC(=O)[C@H](CC(C)C)NC(=O)[C@H](CC(C)C)NC(=O)[C@H](CCCCN)NC(=O)[C@H](CC(C)C)NC(=O)[C@@H](CC(C)C)NC(=O)[C@@H](CCCCN)NC(=O)[C@@H](N)CCCCN)C(N)=O | 1000 µg/mL
CC(C)C[C@H](NC(=O)[C@H](CCCCN)NC(=O)[C@H](CC(C)C)NC(=O)[C@H](CC(C)C)NC(=O)[C@@H](CCCCN)NC(=O)[C@H](N)CCCCN)C(=O)N[C@@H](CC(C)C)C(=O)N[C@@H](CCCCN)C(=O)N[C@@H](CC(C)C)C(=O)N[C@H](CC(C)C)C(=O)N[C@H](CC(C)C)C(N)=O | 1000 µg/mL
CC(C)C[C@H](NC(=O)[C@H](CC(C)C)NC(=O)[C@H](CC(C)C)NC(=O)[C@@H](CCCCN)NC(=O)[C@H](CC(C)C)NC(=O)[C@H](CC(C)C)NC(=O)[C@@H](CCCCN)NC(=O)[C@H](CC(C)C)NC(=O)[C@H](CC(C)C)NC(=O)[C@@H](CCCCN)NC(=O)[C@H](N)CCCCN)C(N)=O | 1000 µg/mL
CC(C)C[C@H](NC(=O)[C@H](CC(C)C)NC(=O)[C@H](CC(C)C)NC(=O)[C@@H](CCCCN)NC(=O)[C@@H](CC(C)C)NC(=O)[C@@H](CC(C)C)NC(=O)[C@@H](CCCCN)NC(=O)[C@H](CC(C)C)NC(=O)[C@H](CC(C)C)NC(=O)[C@H](CCCCN)NC(=O)[C@@H](N)CCCCN)C(N)=O | 1000 µg/mL
CC(C)C[C@H](NC(=O)[C@H](CC(C)C)NC(=O)[C@H](CC(C)C)NC(=O)[C@H](CCCCN)NC(=O)[C@@H](CC(C)C)NC(=O)[C@@H](CC(C)C)NC(=O)[C@H](CCCCN)NC(=O)[C@@H](CC(C)C)NC(=O)[C@@H](CC(C)C)NC(=O)[C@H](CCCCN)NC(=O)[C@@H](N)CCCCN)C(N)=O | 1000 µg/mL
CC(C)C[C@H](NC(=O)[C@H](CC(C)C)NC(=O)[C@H](CC(C)C)NC(=O)[C@H](CCCCN)NC(=O)[C@@H](CC(C)C)NC(=O)[C@@H](CC(C)C)NC(=O)[C@H](CCCCN)NC(=O)[C@@H](CC(C)C)NC(=O)[C@@H](CC(C)C)NC(=O)[C@@H](CCCCN)NC(=O)[C@@H](N)CCCCN)C(N)=O | 250 µg/mL
CC(C)C[C@H](NC(=O)[C@H](CC(C)C)NC(=O)[C@@H](CC(C)C)NC(=O)[C@H](CCCCN)NC(=O)[C@@H](CC(C)C)NC(=O)[C@@H](CC(C)C)NC(=O)[C@H](CCCCN)NC(=O)[C@@H](CC(C)C)NC(=O)[C@@H](CC(C)C)NC(=O)[C@H](CCCCN)NC(=O)[C@@H](N)CCCCN)C(N)=O | > 2000 µg/mL
CC(C)C[C@H](NC(=O)[C@H](CC(C)C)NC(=O)[C@@H](CC(C)C)NC(=O)[C@@H](CCCCN)NC(=O)[C@H](CC(C)C)NC(=O)[C@H](CC(C)C)NC(=O)[C@@H](CCCCN)NC(=O)[C@@H](CC(C)C)NC(=O)[C@H](CC(C)C)NC(=O)[C@H](CCCCN)NC(=O)[C@@H](N)CCCCN)C(N)=O | 125 µg/mL
CC(C)C[C@H](NC(=O)[C@H](CC(C)C)NC(=O)[C@@H](CCCCN)NC(=O)[C@H](CC(C)C)NC(=O)[C@H](CC(C)C)NC(=O)[C@@H](CCCCN)NC(=O)[C@H](CC(C)C)NC(=O)[C@H](CC(C)C)NC(=O)[C@@H](CCCCN)NC(=O)[C@H](N)CCCCN)C(=O)N[C@H](CC(C)C)C(N)=O | > 2000 µg/mL
CC(C)C[C@H](NC(=O)[C@H](CC(C)C)NC(=O)[C@@H](CC(C)C)NC(=O)[C@@H](CCCCN)NC(=O)[C@H](CC(C)C)NC(=O)[C@H](CC(C)C)NC(=O)[C@H](CCCCN)NC(=O)[C@@H](CC(C)C)NC(=O)[C@@H](CC(C)C)NC(=O)[C@H](CCCCN)NC(=O)[C@@H](N)CCCCN)C(N)=O | 1000 µg/mL
CC(C)C[C@H](NC(=O)[C@H](CC(C)C)NC(=O)[C@@H](CCCCN)NC(=O)[C@H](CC(C)C)NC(=O)[C@H](CC(C)C)NC(=O)[C@@H](CCCCN)NC(=O)[C@H](N)CCCCN)C(=O)N[C@@H](CCCCN)C(=O)N[C@@H](CC(C)C)C(=O)N[C@H](CC(C)C)C(=O)N[C@H](CC(C)C)C(N)=O | > 2000 µg/mL
CC(C)C[C@H](NC(=O)[C@@H](CC(C)C)NC(=O)[C@H](CC(C)C)NC(=O)[C@H](CCCCN)NC(=O)[C@@H](CC(C)C)NC(=O)[C@H](CC(C)C)NC(=O)[C@H](CCCCN)NC(=O)[C@@H](CC(C)C)NC(=O)[C@@H](CC(C)C)NC(=O)[C@H](CCCCN)NC(=O)[C@@H](N)CCCCN)C(N)=O | > 2000 µg/mL
CC(C)C[C@H](NC(=O)[C@H](CC(C)C)NC(=O)[C@@H](CC(C)C)NC(=O)[C@H](CCCCN)NC(=O)[C@H](CC(C)C)NC(=O)[C@@H](CC(C)C)NC(=O)[C@H](CCCCN)NC(=O)[C@H](CC(C)C)NC(=O)[C@@H](CC(C)C)NC(=O)[C@@H](CCCCN)NC(=O)[C@@H](N)CCCCN)C(N)=O | > 2000 µg/mL
CC(C)C[C@H](NC(=O)[C@H](CC(C)C)NC(=O)[C@H](CC(C)C)NC(=O)[C@H](CCCCN)NC(=O)[C@@H](CC(C)C)NC(=O)[C@@H](CC(C)C)NC(=O)[C@H](CCCCN)NC(=O)[C@H](CC(C)C)NC(=O)[C@H](CC(C)C)NC(=O)[C@H](CCCCN)NC(=O)[C@@H](N)CCCCN)C(N)=O | 500 µg/mL
CC(C)CC(NC(=O)C(CC(C)C)NC(=O)C(CC(C)C)NC(=O)C(CCCCN)NC(=O)C(CC(C)C)NC(=O)C(CC(C)C)NC(=O)C(CCCCN)NC(=O)C(CC(C)C)NC(=O)C(CC(C)C)NC(=O)C(CCCCN)NC(=O)C(N)CCCCN)C(N)=O (racemic) | 1000 µg/mL
CC(C)C[C@H](NC(=O)[C@H](CCCCN)NC(=O)[C@H](N)CCCCN)C(=O)N[C@@H](CC(C)C)C(=O)N[C@H](CCCCN)C(=O)N[C@H](CC(C)C)C(=O)N[C@H](CC(C)C)C(=O)N[C@@H](CCCCN)C(=O)N[C@@H](CC(C)C)C(=O)N[C@@H](CC(C)C)C(=O)N[C@H](CC(C)C)C(N)=O | 1000 µg/mL
CC(C)C[C@H](NC(=O)[C@H](CC(C)C)NC(=O)[C@@H](CCCCN)NC(=O)[C@H](CC(C)C)NC(=O)[C@H](CC(C)C)NC(=O)[C@@H](CCCCN)NC(=O)[C@@H](CC(C)C)NC(=O)[C@H](CC(C)C)NC(=O)[C@H](CCCCN)NC(=O)[C@@H](N)CCCCN)C(=O)N[C@H](CC(C)C)C(N)=O | > 2000 µg/mL
CC(C)C[C@H](NC(=O)[C@H](CCCCN)NC(=O)[C@H](CC(C)C)NC(=O)[C@H](CC(C)C)NC(=O)[C@@H](CCCCN)NC(=O)[C@H](CC(C)C)NC(=O)[C@H](CC(C)C)NC(=O)[C@@H](CCCCN)NC(=O)[C@H](N)CCCCN)C(=O)N[C@@H](CC(C)C)C(=O)N[C@H](CC(C)C)C(N)=O | 1000 µg/mL
CC(C)C[C@H](NC(=O)[C@H](CC(C)C)NC(=O)[C@H](CC(C)C)NC(=O)[C@@H](CCCCN)NC(=O)[C@@H](CC(C)C)NC(=O)[C@@H](CC(C)C)NC(=O)[C@@H](CCCCN)NC(=O)[C@@H](CC(C)C)NC(=O)[C@H](CC(C)C)NC(=O)[C@H](CCCCN)NC(=O)[C@@H](N)CCCCN)C(N)=O | 250 µg/mL
CC(C)C[C@H](NC(=O)[C@H](CC(C)C)NC(=O)[C@H](CC(C)C)NC(=O)[C@H](CCCCN)NC(=O)[C@H](CC(C)C)NC(=O)[C@H](CC(C)C)NC(=O)[C@@H](CCCCN)NC(=O)[C@H](CC(C)C)NC(=O)[C@H](CC(C)C)NC(=O)[C@@H](CCCCN)NC(=O)[C@@H](N)CCCCN)C(N)=O | < 15.6 µg/mL
CC(C)C[C@H](NC(=O)[C@H](CC(C)C)NC(=O)[C@H](CC(C)C)NC(=O)[C@H](CCCCN)NC(=O)[C@H](CC(C)C)NC(=O)[C@@H](CC(C)C)NC(=O)[C@H](CCCCN)NC(=O)[C@@H](CC(C)C)NC(=O)[C@@H](CC(C)C)NC(=O)[C@@H](CCCCN)NC(=O)[C@@H](N)CCCCN)C(N)=O | 250 µg/mL
CC(C)C[C@H](NC(=O)[C@H](CC(C)C)NC(=O)[C@H](CC(C)C)NC(=O)[C@H](CCCCN)NC(=O)[C@H](CC(C)C)NC(=O)[C@H](CC(C)C)NC(=O)[C@@H](CCCCN)NC(=O)[C@H](CC(C)C)NC(=O)[C@H](CC(C)C)NC(=O)[C@@H](CCCCN)NC(=O)[C@H](N)CCCCN)C(N)=O | < 15.6 µg/mL
CC(C)C[C@@H](NC(=O)[C@@H](CC(C)C)NC(=O)[C@@H](CC(C)C)NC(=O)[C@@H](CCCCN)NC(=O)[C@@H](CC(C)C)NC(=O)[C@@H](CC(C)C)NC(=O)[C@@H](CCCCN)NC(=O)[C@@H](CC(C)C)NC(=O)[C@@H](CC(C)C)NC(=O)[C@@H](CCCCN)NC(=O)[C@H](N)CCCCN)C(N)=O | 125 µg/mL

Test system: not listed separately
Experiment: Induction of membrane disruption in eukaryotic inner membrane mimic EYPC vesicles assessed as carboxyfluorescein leakage at 10 ug/ml measured after 240 secs by fluorescence based assay
Assay type: cell membranes
Settings: dose 10.0 µg/ml, time 240.0 sec

Compound | Activity
CC(C)C[C@H](NC(=O)[C@H](CC(C)C)NC(=O)[C@@H](CC(C)C)NC(=O)[C@H](CCCCN)NC(=O)[C@@H](CC(C)C)NC(=O)[C@H](CC(C)C)NC(=O)[C@@H](CCCCN)NC(=O)[C@H](CC(C)C)NC(=O)[C@@H](CC(C)C)NC(=O)[C@H](CCCCN)NC(=O)[C@@H](N)CCCCN)C(N)=O | 3%
CC(C)C[C@H](NC(=O)[C@H](CC(C)C)NC(=O)[C@@H](CC(C)C)NC(=O)[C@H](CCCCN)NC(=O)[C@@H](CC(C)C)NC(=O)[C@@H](CC(C)C)NC(=O)[C@H](CCCCN)NC(=O)[C@@H](CC(C)C)NC(=O)[C@@H](CC(C)C)NC(=O)[C@H](CCCCN)NC(=O)[C@@H](N)CCCCN)C(N)=O | 4%
CC(C)C[C@H](NC(=O)[C@H](CC(C)C)NC(=O)[C@@H](CC(C)C)NC(=O)[C@@H](CCCCN)NC(=O)[C@H](CC(C)C)NC(=O)[C@H](CC(C)C)NC(=O)[C@@H](CCCCN)NC(=O)[C@@H](CC(C)C)NC(=O)[C@H](CC(C)C)NC(=O)[C@H](CCCCN)NC(=O)[C@@H](N)CCCCN)C(N)=O | 2%
CC(C)C[C@H](NC(=O)[C@H](CCCCN)NC(=O)[C@H](N)CCCCN)C(=O)N[C@@H](CC(C)C)C(=O)N[C@H](CCCCN)C(=O)N[C@H](CC(C)C)C(=O)N[C@H](CC(C)C)C(=O)N[C@@H](CCCCN)C(=O)N[C@@H](CC(C)C)C(=O)N[C@@H](CC(C)C)C(=O)N[C@H](CC(C)C)C(N)=O | 3%
